Key:
[1] = test system: human glioblastoma cells transfected with APPsw; assay: APP processing, Aβ1-40 production in culture medium by ELISA; format: cell-based
Description: Production of Aβ1-40 in the culture medium was measured by ELISA.

[2] = test system: human neuronal progenitor cells (HNPC); assay: Aβ neurotoxicity, LDH release from cells treated with pre-aggregated Aβ1-40; format: cell-based; conditions: 100 nM nilvadipine along with 30 μM AgAβ, three days
Description: Neurotoxicity is assessed by measuring the amount of lactic dehydrogenase (LDH) released from cells;
HNPC cells differentiate into neurons readily upon treatment with cyclic AMP. Cyclic AMP (1 mM) (Sigma) was added to the culture medium and the HNPC cells were incubated at 37° C. for 48 hours or more under serum free conditions. […] Neurotoxicity was assessed by measuring the amount of lactic dehydrogenase (LDH; an intracellular enzyme found in all cells) released from the cells.

[3] = test system: plasma Aβ in TgPS/APPsw mice; assay: Plasma Aβ levels in TgPS/APPsw mice, human Aβ1-40 ELISA; format: in vivo, mouse; conditions: 1.5 mg/kg I.P. every day for three and one half weeks; 2 year old TgPS/APPsw mice
Description: Following this treatment, 100 μl of blood were collected from the tail vein of the animals using EDTA (4%) as an anticoagulant. Blood samples were centrifuged at 4000 g for 1 min and the plasma was collected and diluted four times before being assayed for human Aβ1-40 using a commercially available human Aβ1-40 ELISA (Biosource, CA).

[4] = test system: N9 murine microglial cells; assay: LPS-induced microglial activation in vitro, TNF-α production by ELISA; format: cell-based, mouse
Description: Microglial activation is determined by TNF-α production (pg/ml) measured by ELISA;
N9 murine micoglial cells are well characterized scavenger murine microglial clones derived from embryonic mouse brain. The extent of microglial activation was determined by TNF-α production (pg/ml) measured by ELISA.

COC(=O)C1=C(C#N)NC(C)=C(C(=O)OC(C)C)C1c1cccc([N+](=O)[O-])c1 (stereo not drawn) [nilvadipine, isopropyl-3-methyl-2-cyano-1,4-dihydro-6-methyl-4-(m-nitrophenyl)-3,5-pyridine-dicarboxylate]
reduction of Aβ1-40 production ([1]; 50 nM, 24 hours): about 9% | reduction of Aβ1-40 production ([1]; 50 nM, 48 hours): about 18% | reduction of Aβ1-40 production ([1]; 250 nM, 24 hours): about 15% | reduction of Aβ1-40 production ([1]; 250 nM, 48 hours): about 5% | decrease in LDH release [2]: about 44% | increase in plasma levels of Aβ compared to control animals [3]: 42% | TNF-α production ([4]; 50 nM nilvadipine, no LPS, N9 cells): about 40 pg/ml | TNF-α production ([4]; 1 μg/ml LPS plus 50 nM nilvadipine, 24 hours, N9 cells (LPS alone about 820 pg/ml)): about 670 pg/ml | TNF-α production ([4]; LPS plus 500 nM nilvadipine, 24 hours, N9 cells (LPS alone about 820 pg/ml)): about 610 pg/ml

From US7732467B2, “Method for reducing amyloid deposition, amyloid neurotoxicity and microgliosis” (Alzheimer's Institute of America, Inc., priority 2003, dated 2010)
